Tests used:
[1] = target: Muscarinic acetylcholine receptor M3 (Homo sapiens, UniProt P20309)
[2] = target: T1, Muscarinic acetylcholine receptor M1 (Homo sapiens, UniProt P11229); type: functional
T1 sequence (P11229 whole entry): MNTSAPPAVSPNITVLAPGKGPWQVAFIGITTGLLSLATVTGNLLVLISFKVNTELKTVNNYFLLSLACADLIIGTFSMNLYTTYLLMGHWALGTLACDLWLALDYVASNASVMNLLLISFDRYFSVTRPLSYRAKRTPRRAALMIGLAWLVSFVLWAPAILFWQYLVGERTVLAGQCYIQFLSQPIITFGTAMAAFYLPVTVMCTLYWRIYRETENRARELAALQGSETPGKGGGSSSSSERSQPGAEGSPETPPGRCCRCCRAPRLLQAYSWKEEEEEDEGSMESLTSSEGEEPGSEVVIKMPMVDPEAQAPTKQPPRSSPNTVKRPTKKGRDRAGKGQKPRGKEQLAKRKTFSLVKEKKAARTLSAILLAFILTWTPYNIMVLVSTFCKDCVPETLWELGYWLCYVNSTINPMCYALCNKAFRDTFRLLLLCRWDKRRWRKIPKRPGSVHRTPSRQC

[3] = target: 5-hydroxytryptamine receptor 2A (Homo sapiens, UniProt P28223); type: functional, cell-based
[4] = target: T2, Alpha-1A adrenergic receptor (Homo sapiens, UniProt P35348)
T2 sequence (P35348 whole entry): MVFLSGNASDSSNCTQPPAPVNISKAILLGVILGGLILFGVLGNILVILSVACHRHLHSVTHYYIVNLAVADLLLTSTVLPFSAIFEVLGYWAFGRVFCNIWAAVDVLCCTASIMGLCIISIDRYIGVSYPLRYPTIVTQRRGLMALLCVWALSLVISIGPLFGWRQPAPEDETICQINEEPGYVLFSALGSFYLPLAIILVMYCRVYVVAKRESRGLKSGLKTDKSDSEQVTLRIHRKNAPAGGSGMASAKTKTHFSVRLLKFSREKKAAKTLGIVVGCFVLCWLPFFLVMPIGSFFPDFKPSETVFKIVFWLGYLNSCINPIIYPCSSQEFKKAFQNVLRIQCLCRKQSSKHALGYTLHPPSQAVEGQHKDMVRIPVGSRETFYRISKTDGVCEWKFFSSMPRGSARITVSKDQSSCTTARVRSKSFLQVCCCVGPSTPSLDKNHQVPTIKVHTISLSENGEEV

Androgen receptor = target: T3, Androgen receptor (Homo sapiens, UniProt P10275)
T3 sequence (P10275 whole entry): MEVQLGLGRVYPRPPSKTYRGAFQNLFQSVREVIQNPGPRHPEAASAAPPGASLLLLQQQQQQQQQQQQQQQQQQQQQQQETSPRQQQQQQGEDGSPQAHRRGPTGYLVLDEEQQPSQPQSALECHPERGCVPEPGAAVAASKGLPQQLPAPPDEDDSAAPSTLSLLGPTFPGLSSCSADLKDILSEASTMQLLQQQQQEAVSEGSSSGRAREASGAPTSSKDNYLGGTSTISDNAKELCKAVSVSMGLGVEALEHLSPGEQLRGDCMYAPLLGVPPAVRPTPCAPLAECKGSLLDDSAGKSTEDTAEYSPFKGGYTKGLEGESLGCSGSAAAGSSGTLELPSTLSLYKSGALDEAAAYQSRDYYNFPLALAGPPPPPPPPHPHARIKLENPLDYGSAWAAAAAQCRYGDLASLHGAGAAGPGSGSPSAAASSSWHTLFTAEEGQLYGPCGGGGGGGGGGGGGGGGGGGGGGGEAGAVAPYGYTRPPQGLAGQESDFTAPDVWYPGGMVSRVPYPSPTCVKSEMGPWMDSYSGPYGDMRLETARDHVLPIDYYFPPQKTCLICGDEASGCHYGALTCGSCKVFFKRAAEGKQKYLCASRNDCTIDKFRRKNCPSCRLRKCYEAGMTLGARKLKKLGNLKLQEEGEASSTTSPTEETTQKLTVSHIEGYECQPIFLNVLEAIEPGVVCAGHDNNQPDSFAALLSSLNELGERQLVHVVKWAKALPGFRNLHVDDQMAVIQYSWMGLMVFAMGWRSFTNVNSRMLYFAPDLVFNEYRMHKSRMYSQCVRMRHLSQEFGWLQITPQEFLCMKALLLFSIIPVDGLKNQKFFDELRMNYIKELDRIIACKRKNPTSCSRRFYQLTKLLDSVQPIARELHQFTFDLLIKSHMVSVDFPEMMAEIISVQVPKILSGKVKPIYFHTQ

[5] = target: Gamma-aminobutyric acid receptor subunit alpha-1/alpha-2/beta-2/gamma-2 (Homo sapiens, UniProt P14867+P18507+P47869+P47870); type: protein-complex assay
[6] = target: 5-hydroxytryptamine receptor 2B (Homo sapiens, UniProt P41595)
Note: assay procedure not described here.

Chain of Gamma-aminobutyric acid receptor subunit alpha-1/alpha-2/beta-2/gamma-2 (P14867 whole entry): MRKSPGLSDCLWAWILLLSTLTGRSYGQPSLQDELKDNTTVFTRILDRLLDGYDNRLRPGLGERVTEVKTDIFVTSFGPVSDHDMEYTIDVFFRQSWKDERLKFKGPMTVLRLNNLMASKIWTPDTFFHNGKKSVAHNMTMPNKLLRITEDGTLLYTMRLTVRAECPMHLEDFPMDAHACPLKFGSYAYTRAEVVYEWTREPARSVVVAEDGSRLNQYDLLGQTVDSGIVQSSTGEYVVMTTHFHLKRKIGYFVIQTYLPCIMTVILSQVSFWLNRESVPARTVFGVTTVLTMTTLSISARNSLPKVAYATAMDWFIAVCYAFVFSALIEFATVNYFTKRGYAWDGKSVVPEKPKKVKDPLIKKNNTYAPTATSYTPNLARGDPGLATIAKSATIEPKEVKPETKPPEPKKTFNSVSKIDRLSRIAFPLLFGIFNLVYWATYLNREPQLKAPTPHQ
Chain of Gamma-aminobutyric acid receptor subunit alpha-1/alpha-2/beta-2/gamma-2 (P47870 whole entry): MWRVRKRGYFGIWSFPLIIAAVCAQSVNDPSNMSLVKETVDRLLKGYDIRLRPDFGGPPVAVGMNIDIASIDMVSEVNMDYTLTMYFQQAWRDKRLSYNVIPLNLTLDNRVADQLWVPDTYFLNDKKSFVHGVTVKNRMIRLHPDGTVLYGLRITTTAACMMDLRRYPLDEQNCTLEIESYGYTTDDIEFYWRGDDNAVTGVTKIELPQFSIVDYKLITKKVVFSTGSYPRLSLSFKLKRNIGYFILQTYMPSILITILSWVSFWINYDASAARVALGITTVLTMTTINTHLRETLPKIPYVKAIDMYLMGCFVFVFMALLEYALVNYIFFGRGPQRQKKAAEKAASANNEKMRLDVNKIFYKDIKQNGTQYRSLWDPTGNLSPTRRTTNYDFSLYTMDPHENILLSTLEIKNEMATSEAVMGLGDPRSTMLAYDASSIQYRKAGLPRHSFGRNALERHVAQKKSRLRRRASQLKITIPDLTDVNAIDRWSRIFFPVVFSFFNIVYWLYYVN
Chain of Gamma-aminobutyric acid receptor subunit alpha-1/alpha-2/beta-2/gamma-2 (P18507 whole entry): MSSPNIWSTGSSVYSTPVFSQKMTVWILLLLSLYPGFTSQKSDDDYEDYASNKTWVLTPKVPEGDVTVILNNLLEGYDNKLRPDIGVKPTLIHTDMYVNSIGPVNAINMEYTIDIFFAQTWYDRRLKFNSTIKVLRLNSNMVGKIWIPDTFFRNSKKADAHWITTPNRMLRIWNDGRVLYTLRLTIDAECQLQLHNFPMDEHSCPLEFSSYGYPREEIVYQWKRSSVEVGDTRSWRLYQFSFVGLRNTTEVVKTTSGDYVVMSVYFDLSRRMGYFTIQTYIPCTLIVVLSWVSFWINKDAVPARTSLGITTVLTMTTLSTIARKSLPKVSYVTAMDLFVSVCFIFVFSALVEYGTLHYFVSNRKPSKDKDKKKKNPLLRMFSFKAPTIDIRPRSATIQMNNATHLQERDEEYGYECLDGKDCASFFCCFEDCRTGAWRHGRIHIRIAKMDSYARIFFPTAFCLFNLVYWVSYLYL
Chain of Gamma-aminobutyric acid receptor subunit alpha-1/alpha-2/beta-2/gamma-2 (P47869 whole entry): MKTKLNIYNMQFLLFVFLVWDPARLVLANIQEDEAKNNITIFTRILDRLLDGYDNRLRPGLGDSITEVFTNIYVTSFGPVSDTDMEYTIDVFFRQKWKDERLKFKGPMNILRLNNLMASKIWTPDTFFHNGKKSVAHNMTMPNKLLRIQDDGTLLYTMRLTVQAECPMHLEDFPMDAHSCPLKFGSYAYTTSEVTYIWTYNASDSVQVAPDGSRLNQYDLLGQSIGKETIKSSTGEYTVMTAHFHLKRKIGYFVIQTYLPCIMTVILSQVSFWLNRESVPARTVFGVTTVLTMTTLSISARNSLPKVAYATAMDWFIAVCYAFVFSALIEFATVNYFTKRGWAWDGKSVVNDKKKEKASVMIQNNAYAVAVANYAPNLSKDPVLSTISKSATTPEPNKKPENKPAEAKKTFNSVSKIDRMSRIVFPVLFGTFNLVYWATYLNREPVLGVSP
Chain of Muscarinic acetylcholine receptor M3 (P20309 whole entry): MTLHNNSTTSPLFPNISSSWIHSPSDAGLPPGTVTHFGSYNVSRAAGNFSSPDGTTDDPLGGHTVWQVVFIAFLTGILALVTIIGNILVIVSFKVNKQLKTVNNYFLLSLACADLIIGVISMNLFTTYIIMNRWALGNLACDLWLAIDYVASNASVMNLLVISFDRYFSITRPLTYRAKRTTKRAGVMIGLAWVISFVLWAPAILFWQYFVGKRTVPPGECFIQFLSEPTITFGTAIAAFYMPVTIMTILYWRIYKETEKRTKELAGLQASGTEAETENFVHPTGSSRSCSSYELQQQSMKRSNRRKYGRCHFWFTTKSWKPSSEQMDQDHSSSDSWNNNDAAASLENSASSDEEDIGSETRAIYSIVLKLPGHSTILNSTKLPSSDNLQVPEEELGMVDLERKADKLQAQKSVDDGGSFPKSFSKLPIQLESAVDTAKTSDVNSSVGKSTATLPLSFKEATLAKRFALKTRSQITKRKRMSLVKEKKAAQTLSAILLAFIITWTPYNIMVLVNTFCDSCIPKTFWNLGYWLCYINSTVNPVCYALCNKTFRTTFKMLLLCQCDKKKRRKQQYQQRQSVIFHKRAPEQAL
Chain of 5-hydroxytryptamine receptor 2A (P28223 whole entry): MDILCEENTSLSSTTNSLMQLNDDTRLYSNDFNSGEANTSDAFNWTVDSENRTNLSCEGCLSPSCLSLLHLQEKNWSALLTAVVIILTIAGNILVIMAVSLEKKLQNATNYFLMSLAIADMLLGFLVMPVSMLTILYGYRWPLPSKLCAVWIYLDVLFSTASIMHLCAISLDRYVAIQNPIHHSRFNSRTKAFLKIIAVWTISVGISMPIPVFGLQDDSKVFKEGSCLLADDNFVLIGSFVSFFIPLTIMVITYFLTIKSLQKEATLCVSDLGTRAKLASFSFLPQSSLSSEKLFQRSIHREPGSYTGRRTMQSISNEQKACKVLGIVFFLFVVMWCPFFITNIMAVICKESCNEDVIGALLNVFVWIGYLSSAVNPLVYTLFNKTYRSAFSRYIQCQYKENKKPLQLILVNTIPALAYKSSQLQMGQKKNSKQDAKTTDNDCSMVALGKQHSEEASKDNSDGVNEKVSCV
Chain of 5-hydroxytryptamine receptor 2B (P41595 whole entry): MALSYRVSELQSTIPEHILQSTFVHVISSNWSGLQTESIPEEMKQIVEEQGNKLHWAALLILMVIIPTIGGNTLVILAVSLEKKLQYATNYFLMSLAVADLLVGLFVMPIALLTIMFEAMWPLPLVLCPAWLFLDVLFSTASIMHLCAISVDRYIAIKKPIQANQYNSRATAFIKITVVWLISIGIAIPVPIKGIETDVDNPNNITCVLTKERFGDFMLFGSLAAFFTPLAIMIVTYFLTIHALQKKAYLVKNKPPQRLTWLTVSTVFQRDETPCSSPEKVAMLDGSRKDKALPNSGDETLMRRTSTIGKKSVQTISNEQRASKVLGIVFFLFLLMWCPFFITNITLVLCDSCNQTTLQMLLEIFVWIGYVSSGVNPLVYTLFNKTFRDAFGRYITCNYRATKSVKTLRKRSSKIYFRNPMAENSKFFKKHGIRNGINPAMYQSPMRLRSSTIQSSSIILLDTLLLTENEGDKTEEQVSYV

Row | Compound | AC50 [1] [µM] | AC50 [2] [µM] | AC50 (Androgen receptor) [µM] | AC50 [5] [µM] | other results
1 | C[C@@H](NCCCc1cccc(C(F)(F)F)c1)c1cccc2ccccc12 | 14 | 17 | – | – | AC50 [3]: > 30 µM
2 | COc1ccc(CC2c3cc(OC)c(OC)cc3CC[N+]2(C)CCC(=O)OCCCCCOC(=O)CC[N+]2(C)CCc3cc(OC)c(OC)cc3C2Cc2ccc(OC)c(OC)c2)cc1OC (configuration not stated) | > 30 | > 30 | – | – | AC50 [4]: > 30 µM; AC50 [3]: > 30 µM
3 | O=C(O)COc1ccc(C(=O)c2cccs2)c(Cl)c1Cl | – | – | > 30 | > 10 | –
4 | CCN1CCN(Cc2ccc(Nc3ncc(F)c(-c4cc(F)c5nc(C)n(C(C)C)c5c4)n3)nc2)CC1 [ABEMACICLIB] | > 30 | > 30 | – | – | AC50 [3]: 28 µM
5 | COc1c2ccoc2cc2oc(=O)ccc12 [BERGAPTEN] | – | – | – | > 30 | –
6 | CC(C(=O)O)c1ccc2c(c1)[nH]c1ccc(Cl)cc12 (configuration not stated) [CARPROFEN] | > 30 | > 10 | – | – | AC50 [4]: > 10 µM; AC50 [3]: > 10 µM
7 | CC[C@H](C)C[C@H](C)CCCCCCCCC(=O)N[C@H]1C[C@@H](O)[C@@H](NCCN)NC(=O)[C@@H]2[C@@H](O)CCN2C(=O)[C@H]([C@H](O)CCN)NC(=O)[C@H]([C@H](O)[C@@H](O)c2ccc(O)cc2)NC(=O)[C@@H]2C[C@@H](O)CN2C(=O)[C@H]([C@@H](C)O)NC1=O [CASPOFUNGIN] | – | – | > 30 | – | –
8 | C/C=C/C/C=C/CCC(=O)[C@H]1O[C@H]1C(N)=O [CERULENIN] | – | – | > 30 | – | –
9 | O=C1CCc2cc(OCCCCc3nnnn3C3CCCCC3)ccc2N1 [CILOSTAZOL] | – | – | – | – | AC50 [4]: > 10 µM
10 | N[C@@H](CS)C(=O)O [CYSTEINE] | – | – | – | > 30 | –
11 | O=C1CN(/N=C/c2ccc(-c3ccc([N+](=O)[O-])cc3)o2)C(O)=N1 [DANTROLENE] | > 30 | > 10 | – | – | AC50 [4]: > 10 µM; AC50 [3]: > 10 µM
12 | C[C@H]1O[C@@H](n2cc(F)c(=O)[nH]c2=O)[C@H](O)[C@@H]1O [DOXIFLURIDINE] | – | – | – | > 30 | –
13 | C[C@]12C=CC(=O)N[C@@H]1CC[C@@H]1[C@@H]2CC[C@]2(C)[C@@H](C(=O)Nc3cc(C(F)(F)F)ccc3C(F)(F)F)CC[C@@H]12 [DUTASTERIDE] | > 30 | > 10 | – | – | AC50 [4]: > 10 µM; AC50 [3]: > 10 µM
14 | OC[C@H]1O[C@@H](c2ccc(Cl)c(Cc3ccc(O[C@H]4CCOC4)cc3)c2)[C@H](O)[C@@H](O)[C@@H]1O [EMPAGLIFLOZIN] | – | – | > 30 | – | –
15 | CC(C)(O)CNc1nc(Nc2ccnc(C(F)(F)F)c2)nc(-c2cccc(C(F)(F)F)n2)n1 [ENASIDENIB] | – | – | > 30 | > 30 | –
16 | C#C[C@]1(O)CC[C@H]2[C@@H]3CCC4=CC(=O)CC[C@@H]4[C@H]3C(=C)C[C@@]21CC [ETONOGESTREL] | > 30 | > 30 | – | – | AC50 [3]: > 30 µM
17 | CCc1nc(C(N)=O)c(Nc2ccc(N3CCC(N4CCN(C)CC4)CC3)c(OC)c2)nc1NC1CCOCC1 [GILTERITINIB] | – | – | > 30 | – | –
18 | CC[C@H](c1ccc(O)cc1)[C@@H](CC)c1ccc(O)cc1 [HEXESTROL] | – | – | 6.95 | – | –
19 | OC[C@H]1O[C@@H](c2ccc(F)c(Cc3cc4ccccc4s3)c2)[C@H](O)[C@@H](O)[C@@H]1O [IPRAGLIFLOZIN] | – | – | > 30 | – | –
20 | CC(C)C[C@H](NC(=O)CNC(=O)c1cc(Cl)ccc1Cl)B(O)O [IXAZOMIB] | – | – | > 30 | – | –
21 | CC(CCc1ccccc1)NCC(O)c1ccc(O)c(C(N)=O)c1 (configuration not stated) [LABETALOL] | – | – | – | > 30 | –
22 | C[N+](C)(C)C[C@H](O)CC(=O)[O-] [LEVOCARNITINE] | – | – | – | > 30 | –
23 | CN(CC1(C)CCCO1)S(=O)(=O)c1ccc(Cl)c(S(N)(=O)=O)c1 (configuration not stated) [MEFRUSIDE] | > 30 | > 30 | – | – | AC50 [3]: > 30 µM

Row | Compound | AC50 [1] [µM] | AC50 [2] [µM] | AC50 (Androgen receptor) [µM] | AC50 [5] [µM] | other results
24 | CN1CCCCC1CCN1c2ccccc2Sc2ccc([S+](C)[O-])cc21 (configuration not stated) [MESORIDAZINE] | – | – | – | > 30 | –
25 | C[C@@H]1C[C@H]2[C@@H]3CCC4=CC(=O)C=C[C@]4(C)[C@@]3(Cl)[C@@H](O)C[C@]2(C)[C@@]1(OC(=O)c1ccco1)C(=O)CCl [MOMETASONE FUROATE] | – | – | 0.0337 | > 30 | –
26 | Cc1ccccc1C(=O)Nc1ccc(C(=O)N2CCCC(N(C)C)c3ccccc32)cc1 (configuration not stated) [MOZAVAPTAN] | – | – | – | > 30 | –
27 | CC(=O)O[C@]1(C(C)=O)CC[C@H]2[C@@H]3C=C(C)C4=CC(=O)CC[C@@H]4[C@H]3CC[C@@]21C [NOMEGESTROL ACETATE] | > 30 | > 30 | 0.02 | – | AC50 [3]: > 30 µM
28 | O=C(O)c1cc(/N=N/c2ccc(O)c(C(=O)O)c2)ccc1O [OLSALAZINE] | – | – | > 30 | – | –
29 | CCOC(=O)C1=C[C@@H](OC(CC)CC)[C@H](NC(C)=O)[C@@H](N)C1 [OSELTAMIVIR] | – | – | – | > 30 | –
30 | Cc1onc(-c2ccccc2)c1C(=O)N[C@@H]1C(=O)N2[C@@H]1SC(C)(C)[C@@H]2C(=O)O [OXACILLIN] | – | – | – | > 30 | –
31 | CCOC(=O)c1c(C)cc2c(CO)n[nH]c(=O)c2c1C [OXAGRELATE] | – | – | > 30 | – | –
32 | N#Cc1ccc2c(c1)N(CCCN1CCC(O)CC1)c1ccccc1S2 [PERICIAZINE] | – | – | > 30 | – | –
33 | CN1CCC(=C2c3ccccc3Sc3ccccc32)CC1 [PIMETHIXENE] | – | – | > 30 | – | –
34 | CN1C(C(=O)Nc2ccccn2)=C(O)c2ccccc2S1(=O)=O [PIROXICAM] | – | – | – | – | AC50 [4]: > 30 µM
35 | [H]/N=C(\N/C(=N/[H])Nc1ccc(Cl)cc1)NC(C)C [PROGUANIL] | – | – | – | > 30 | –
36 | C=C[C@H]1C[N@@]2CC[C@H]1C[C@@H]2[C@@H](O)c1ccnc2ccc(OC)cc12 [QUINIDINE] | > 30 | > 10 | – | – | AC50 [6]: 2 µM
37 | CC(N)C12CC3CC(CC(C3)C1)C2 (configuration not stated) [RIMANTADINE] | – | – | – | – | AC50 [4]: > 10 µM
38 | CC(C)c1nc(N(C)S(C)(=O)=O)nc(-c2ccc(F)cc2)c1/C=C/[C@@H](O)C[C@@H](O)CC(=O)O [ROSUVASTATIN] | > 30 | > 30 | – | – | AC50 [3]: > 30 µM
39 | OC[C@H]1O[C@@](CO)(O[C@H]2O[C@H](CO)[C@@H](O)[C@H](O)[C@H]2O)[C@@H](O)[C@@H]1O [SUCROSE] | > 30 | > 30 | – | – | AC50 [3]: > 30 µM
40 | O=C1C(CC[S+]([O-])c2ccccc2)C(=O)N(c2ccccc2)N1c1ccccc1 (configuration not stated) [SULFINPYRAZONE] | – | – | – | – | AC50 [4]: > 10 µM
41 | CCN(CC)CCNC(=O)c1c(C)[nH]c(/C=C2\C(=O)Nc3ccc(F)cc32)c1C [SUNITINIB] | – | – | – | – | AC50 [6]: 0.158 µM
42 | C[C@]1(Cn2ccnn2)[C@H](C(=O)O)N2C(=O)C[C@H]2S1(=O)=O [TAZOBACTAM] | – | – | – | > 30 | –
43 | CC[C@H]1OC(=O)[C@H](C)C(=O)[C@H](C)[C@@H](O[C@@H]2O[C@H](C)C[C@H](N(C)C)[C@H]2O)[C@](C)(OC)C[C@@H](C)C(=O)[C@H](C)[C@H]2N(CCCCn3cnc(-c4cccnc4)c3)C(=O)O[C@]12C [TELITHROMYCIN] | – | – | – | > 30 | –
44 | CC(S)C(=O)NCC(=O)O (configuration not stated) [TIOPRONIN] | > 30 | > 30 | – | – | AC50 [3]: > 30 µM
45 | CC1=C(/C=C/C(C)=C/C=C/C(C)=C/C(=O)O)C(C)(C)CCC1 [TRETINOIN] | – | – | – | > 3 | –
46 | C[C@H](CCC(=O)O)[C@H]1CC[C@H]2[C@@H]3[C@@H](O)C[C@@H]4C[C@H](O)CC[C@]4(C)[C@H]3CC[C@]12C [URSODIOL] | > 30 | > 30 | – | – | AC50 [3]: > 30 µM

From ChEMBL document CHEMBL5291721, “A preclinical secondary pharmacology resource illuminates target-adverse drug reaction associations of marketed drugs” (Nat Commun, 2023)
